Measured values as given in publication PMC2151541 (The Journal of General Physiology, 2006).

Biological target: muscle acetylcholine nicotinic receptor (AChR), adult mouse muscle, wild type (Mus musculus, UniProt P02716+P04756+P09690+P20782)
Experiment: cell-attached single-channel patch clamp
Assay type: cell-based

Chain of muscle acetylcholine nicotinic receptor (AChR), adult mouse muscle, wild type (P02716 25-520): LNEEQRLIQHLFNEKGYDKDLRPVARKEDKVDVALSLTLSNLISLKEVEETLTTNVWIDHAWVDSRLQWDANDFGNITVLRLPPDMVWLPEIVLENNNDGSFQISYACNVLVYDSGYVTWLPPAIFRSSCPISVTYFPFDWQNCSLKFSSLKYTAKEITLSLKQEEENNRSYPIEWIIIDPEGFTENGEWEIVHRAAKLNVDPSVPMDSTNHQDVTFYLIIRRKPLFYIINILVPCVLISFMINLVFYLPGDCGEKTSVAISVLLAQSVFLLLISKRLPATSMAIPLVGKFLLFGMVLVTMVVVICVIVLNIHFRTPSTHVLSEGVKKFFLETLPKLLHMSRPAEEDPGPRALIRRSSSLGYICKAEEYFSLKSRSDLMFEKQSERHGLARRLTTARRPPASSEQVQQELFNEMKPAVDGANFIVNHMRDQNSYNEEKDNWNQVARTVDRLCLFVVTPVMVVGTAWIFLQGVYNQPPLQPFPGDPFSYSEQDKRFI
Chain of muscle acetylcholine nicotinic receptor (AChR), adult mouse muscle, wild type (P20782 21-493): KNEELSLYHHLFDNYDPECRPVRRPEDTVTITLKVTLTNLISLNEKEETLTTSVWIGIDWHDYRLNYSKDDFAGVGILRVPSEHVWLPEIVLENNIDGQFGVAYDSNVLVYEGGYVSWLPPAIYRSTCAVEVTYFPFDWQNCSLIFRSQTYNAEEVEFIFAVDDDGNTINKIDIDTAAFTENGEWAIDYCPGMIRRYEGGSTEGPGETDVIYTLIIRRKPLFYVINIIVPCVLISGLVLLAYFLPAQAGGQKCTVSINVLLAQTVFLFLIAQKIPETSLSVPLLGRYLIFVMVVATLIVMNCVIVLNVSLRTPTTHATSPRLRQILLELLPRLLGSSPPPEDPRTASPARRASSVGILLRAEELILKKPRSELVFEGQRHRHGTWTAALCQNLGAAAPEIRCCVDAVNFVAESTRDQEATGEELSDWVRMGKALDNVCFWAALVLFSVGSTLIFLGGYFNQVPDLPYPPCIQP
Chain of muscle acetylcholine nicotinic receptor (AChR), adult mouse muscle, wild type (P04756 21-457): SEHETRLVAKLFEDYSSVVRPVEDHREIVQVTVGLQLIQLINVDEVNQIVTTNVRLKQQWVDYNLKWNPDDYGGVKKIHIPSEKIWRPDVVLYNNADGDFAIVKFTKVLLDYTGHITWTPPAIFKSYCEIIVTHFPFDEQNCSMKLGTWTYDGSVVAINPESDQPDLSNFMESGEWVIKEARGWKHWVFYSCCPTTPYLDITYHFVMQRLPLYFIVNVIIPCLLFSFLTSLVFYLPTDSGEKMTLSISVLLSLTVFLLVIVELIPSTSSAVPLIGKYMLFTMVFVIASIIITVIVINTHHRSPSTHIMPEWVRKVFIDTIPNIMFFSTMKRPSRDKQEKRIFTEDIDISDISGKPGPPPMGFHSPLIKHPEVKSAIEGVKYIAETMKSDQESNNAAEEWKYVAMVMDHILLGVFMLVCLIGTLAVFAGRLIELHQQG
Chain of muscle acetylcholine nicotinic receptor (AChR), adult mouse muscle, wild type (P09690 24-501): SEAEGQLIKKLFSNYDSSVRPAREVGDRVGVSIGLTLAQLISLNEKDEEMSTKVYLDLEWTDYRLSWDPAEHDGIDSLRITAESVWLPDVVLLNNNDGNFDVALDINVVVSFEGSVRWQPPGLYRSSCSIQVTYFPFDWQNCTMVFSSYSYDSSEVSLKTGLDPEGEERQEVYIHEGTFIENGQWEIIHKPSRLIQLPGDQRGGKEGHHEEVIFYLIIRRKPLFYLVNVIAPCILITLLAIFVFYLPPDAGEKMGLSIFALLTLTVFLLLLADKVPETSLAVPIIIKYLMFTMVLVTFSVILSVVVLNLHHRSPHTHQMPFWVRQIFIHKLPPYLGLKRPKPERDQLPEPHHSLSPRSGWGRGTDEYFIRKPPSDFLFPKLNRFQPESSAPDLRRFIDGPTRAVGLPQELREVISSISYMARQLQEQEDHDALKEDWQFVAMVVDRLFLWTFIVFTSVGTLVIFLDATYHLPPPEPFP

Structure (SMILES): C[N+](C)(C)CCO [choline]
- Kd: 12.5 mM
